Source: PMC4045409 (Biochemical and biophysical research communications, 2011)

Legend:
α1D-AR + β2-syntrophin [1] = target: T1, α1D-AR + β2-syntrophin (Homo sapiens, UniProt P25100); assay: [3H]-PI hydrolysis, HEK293 cells, agonist; type: cell-based
T1 sequence (P25100 1-572): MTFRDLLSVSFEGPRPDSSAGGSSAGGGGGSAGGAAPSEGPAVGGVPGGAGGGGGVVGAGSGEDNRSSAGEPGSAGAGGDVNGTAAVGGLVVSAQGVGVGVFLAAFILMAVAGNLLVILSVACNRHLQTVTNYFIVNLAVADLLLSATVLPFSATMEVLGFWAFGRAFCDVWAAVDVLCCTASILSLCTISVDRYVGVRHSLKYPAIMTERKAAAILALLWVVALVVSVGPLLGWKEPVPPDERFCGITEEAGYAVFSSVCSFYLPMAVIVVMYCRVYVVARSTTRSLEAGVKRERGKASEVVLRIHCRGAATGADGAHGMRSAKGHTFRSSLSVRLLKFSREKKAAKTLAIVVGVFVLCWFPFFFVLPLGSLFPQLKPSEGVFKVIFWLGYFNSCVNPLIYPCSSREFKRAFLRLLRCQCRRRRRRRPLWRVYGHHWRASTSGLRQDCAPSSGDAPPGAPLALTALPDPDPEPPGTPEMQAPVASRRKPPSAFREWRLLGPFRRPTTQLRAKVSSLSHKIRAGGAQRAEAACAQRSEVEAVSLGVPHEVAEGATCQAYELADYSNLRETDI
T1 sequence (Q61235 1-520 partner): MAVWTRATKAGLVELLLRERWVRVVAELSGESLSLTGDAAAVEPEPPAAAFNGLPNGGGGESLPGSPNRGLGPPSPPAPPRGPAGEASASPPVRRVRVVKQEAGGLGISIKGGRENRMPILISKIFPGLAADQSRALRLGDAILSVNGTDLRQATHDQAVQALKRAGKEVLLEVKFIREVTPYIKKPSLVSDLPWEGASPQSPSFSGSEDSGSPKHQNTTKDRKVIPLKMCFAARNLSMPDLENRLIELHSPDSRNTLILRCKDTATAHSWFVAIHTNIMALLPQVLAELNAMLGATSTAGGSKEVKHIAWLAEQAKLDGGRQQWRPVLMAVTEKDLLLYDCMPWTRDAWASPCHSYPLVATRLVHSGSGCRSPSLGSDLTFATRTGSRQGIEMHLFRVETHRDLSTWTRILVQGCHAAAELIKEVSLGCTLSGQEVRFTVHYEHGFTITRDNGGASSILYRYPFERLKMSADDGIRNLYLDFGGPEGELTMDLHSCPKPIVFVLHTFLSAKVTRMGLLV

α1D-AR + α-syntrophin [2] = target: T2, α1D-AR + α-syntrophin (Homo sapiens, UniProt P25100); assay: [3H]-PI hydrolysis, HEK293 cells, agonist; type: cell-based
T2 sequence (P25100 1-572): T1 sequence (P25100 1-572)
T2 sequence (Q61234 1-503 partner): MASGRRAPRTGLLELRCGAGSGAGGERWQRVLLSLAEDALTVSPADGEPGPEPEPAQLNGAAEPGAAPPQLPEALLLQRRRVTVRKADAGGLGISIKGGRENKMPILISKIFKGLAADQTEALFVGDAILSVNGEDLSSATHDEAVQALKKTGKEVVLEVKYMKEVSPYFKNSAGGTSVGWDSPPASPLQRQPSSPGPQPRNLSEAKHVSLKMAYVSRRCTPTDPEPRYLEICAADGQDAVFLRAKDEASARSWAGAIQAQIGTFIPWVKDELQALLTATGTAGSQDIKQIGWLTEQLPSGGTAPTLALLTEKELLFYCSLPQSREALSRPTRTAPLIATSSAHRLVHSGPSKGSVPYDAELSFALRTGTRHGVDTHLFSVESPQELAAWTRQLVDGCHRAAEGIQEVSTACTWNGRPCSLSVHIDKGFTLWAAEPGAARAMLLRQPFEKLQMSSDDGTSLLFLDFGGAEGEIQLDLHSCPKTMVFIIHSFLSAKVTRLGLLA

α1D-AR + β1-syntrophin [3] = target: T3, α1D-AR + β1-syntrophin (Homo sapiens, UniProt P25100); assay: [3H]-PI hydrolysis, HEK293 cells, agonist; type: cell-based
T3 sequence (P25100 1-572): T1 sequence (P25100 1-572)
T3 sequence (Q99L88 2-537 partner): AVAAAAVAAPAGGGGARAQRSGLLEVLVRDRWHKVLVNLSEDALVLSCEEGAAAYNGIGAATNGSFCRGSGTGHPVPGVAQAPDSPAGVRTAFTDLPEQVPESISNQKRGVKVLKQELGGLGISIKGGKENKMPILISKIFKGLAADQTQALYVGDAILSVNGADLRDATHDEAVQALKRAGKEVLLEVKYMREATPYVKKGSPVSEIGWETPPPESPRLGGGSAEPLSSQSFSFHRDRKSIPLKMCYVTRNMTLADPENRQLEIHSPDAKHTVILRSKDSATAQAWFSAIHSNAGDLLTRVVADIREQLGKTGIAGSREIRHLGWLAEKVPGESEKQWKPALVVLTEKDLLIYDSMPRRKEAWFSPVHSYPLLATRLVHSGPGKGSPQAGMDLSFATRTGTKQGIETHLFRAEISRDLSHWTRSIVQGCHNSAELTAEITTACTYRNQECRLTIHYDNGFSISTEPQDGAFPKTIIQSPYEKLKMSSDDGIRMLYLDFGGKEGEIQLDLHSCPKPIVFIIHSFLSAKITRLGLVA

α1D-AR + β2-syntrophin [4] = target: T1, α1D-AR + β2-syntrophin; assay: [3H]-prazosin competition, HEK293 membranes; type: binding
α1D-AR + α-syntrophin [5] = target: T2, α1D-AR + α-syntrophin; assay: [3H]-prazosin competition, HEK293 membranes; type: binding
α1D-AR + β1-syntrophin [6] = target: T3, α1D-AR + β1-syntrophin; assay: [3H]-prazosin competition, HEK293 membranes; type: binding
[7] = 1 nM [3H]-prazosin, 30 min, 37 °C, value is -log10 of KI in M, single site

| SMILES | EC50 (α1D-AR + β2-syntrophin [1]) [nM] | EC50 (α1D-AR + α-syntrophin [2]) [nM] | EC50 (α1D-AR + β1-syntrophin [3]) [nM] | also measured |
| --- | --- | --- | --- | --- |
| CNC[C@H](O)c1cccc(O)c1 [(−) Phenylephrine] | 126 | 67.6 | 155 | – |
| CCS(=O)(=O)Nc1cccc(C(=C2CCCCC2)c2cnc[nH]2)c1 [A-315456] | – | – | – | +β2-syntrophin (α1D-AR + β2-syntrophin [4]; [7]): 7.42 ± 0.21 M; +α-syntrophin (α1D-AR + α-syntrophin [5]; [7]): 7.25 ± 0.13 M; +β1-syntrophin (α1D-AR + β1-syntrophin [6]; [7]): 7.27 ± 0.08 M |
| COc1ccccc1N1CCN(CCCNc2c(C)c(=O)n(C)c(=O)n2C)CC1 [5-MU] | – | – | – | Ki (α1D-AR + β2-syntrophin [4]): 36.3 nM; Ki (α1D-AR + α-syntrophin [5]): 27.5 nM; Ki (α1D-AR + β1-syntrophin [6]): 23.4 nM |
| CNCC(O)c1ccc(O)c(O)c1 (racemic) [(+/−) Epinephrine] | 35.5 | 15.8 | 13.8 | – |
